{"source": "paper PMC7279046", "about": "“Discovery of the Novel Inhibitor Against New Delhi Metallo-β-Lactamase Based on Virtual Screening and Molecular Modelling” (International Journal of Molecular Sciences, 2020)", "key": {"[1]": {"target": "T1, NDM-1 (Klebsiella pneumoniae, UniProt C7C422)", "T1 construct": "made in house; host or cells: E. coli BL21 (DE3)", "T1 sequence (C7C422 29-270 limits assumed)": "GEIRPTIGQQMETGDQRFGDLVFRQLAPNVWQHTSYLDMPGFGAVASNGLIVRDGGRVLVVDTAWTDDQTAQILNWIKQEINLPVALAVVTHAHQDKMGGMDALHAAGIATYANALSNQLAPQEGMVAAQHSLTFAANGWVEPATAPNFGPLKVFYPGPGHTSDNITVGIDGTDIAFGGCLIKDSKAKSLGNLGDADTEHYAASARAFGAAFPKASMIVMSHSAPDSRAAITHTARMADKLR", "test": "nitrocefin assay (hydrolysis by purified NDM-1)", "format": "biochemical", "protocol": "The inhibitory activities of 18 compounds against NDM-1 were tested by nitrocefin assay. The purified NDM-1 was incubated with drugs and nitrocefin, then the absorbance values of OD492nm were determined as the nitrocefin hydrolysis. […]\ncollected for the subsequent protein purification as described by Liu et.al. […]\nfurther determination of the inhibitory effect of ZINC05683641 on the hydrolysis activities of NDM-1. The initial identifying of NDM-1 inhibitory activities was carried out on the […]\nserves as an indicator whose colour changes from yellow to red with increased hydrolysis.\n(§1) NDM-1 were incubated with various concentrations of inhibitor (0, 4, 8, 16, 32, 64 μg/mL) in phosphate buffer (pH = 7.4) at room temperature for 20 minutes, and then, 25 μL of nitrocefin was added to the mixture. After 10 minutes of incubation, the samples were read at OD492nm to determine the level of nitrocefin hydrolysis. […]"}, "[2]": {"target": "T1, NDM-1", "settings": "cited from earlier work"}, "[3]": {"system": "E. coli BL21 (pET28a-SP-NDM-1)", "test": "antibacterial activity assay (MIC, broth microdilution; FICI)", "format": "cell-based", "settings": "for MIC: Escherichia coli; for FICI: FICI ≤ 0.5 denotes synergy"}, "[4]": {"target": "T2, W93A-NDM-1 (Klebsiella pneumoniae, UniProt C7C422, W93A)", "T2 sequence (C7C422 29-270 W93A)": "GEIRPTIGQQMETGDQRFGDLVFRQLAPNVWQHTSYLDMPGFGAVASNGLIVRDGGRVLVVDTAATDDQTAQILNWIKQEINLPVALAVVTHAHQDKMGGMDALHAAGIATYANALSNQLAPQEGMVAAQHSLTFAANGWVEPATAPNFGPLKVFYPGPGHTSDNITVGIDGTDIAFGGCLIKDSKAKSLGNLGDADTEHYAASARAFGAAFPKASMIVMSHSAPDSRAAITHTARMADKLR", "test": "fluorescence-quenching assay, W93A", "format": "binding", "protocol": "(§2) Furthermore, this competitive inhibition mechanism was verified by fluorescence quenching method. In previous literature, fluorescence quenching method are extensively used in the interaction mechanism research between ligand and protein. The binding constants of NDM-1 with ZINC05683641 were measured by fluorescence quenching method in this research. […] It is believed that the 3D structure of NDM-1-ZINC05683641 complex is reliable by MD simulation, and residues of ILE-35, MET-67, VAL-73, TRP-93, CYS-208, ASN-220 and HIS-250 played crucial roles in the binding of ZINC05683641 to NDM-1. […]\n(§3) Fluorescence-quenching assay\n(§4) According to Dong et al., Niu et al. and Qiu et al., the binding constants (KA) of WT-NDM-1 and two mutants NDM-1 with inhibitor were measured using the fluorescence-quenching […]\n(§5) Site-Directed Mutagenesis\n(§6) The recombinant plasmid pET28a-NDM-1 was constructed according to previous reports encoding WT-NDM-1. Plasmids encoding W93A-NDM-1 or H250A-NDM-1 were constructed by using a QuikChange site-directed mutagenesis kit. The template plasmid was the pET28a-NDM-1 plasmid, as noted above.\n(§7) Expression and puriﬁcation of WT-PLY and mutants\n(§8) Plasmids harboring the coding sequences for WT-NDM-1, W93A-NDM-1, and H250A-NDM-1 were transformed into E. coli BL21 (DE3). […]"}, "[5]": {"target": "T3, WT-NDM-1 (Klebsiella pneumoniae, UniProt C7C422)", "T3 construct": "made in house; host or cells: E. coli BL21 (DE3)", "T3 sequence (C7C422 29-270 limits assumed)": "as the sequence (C7C422 29-270 limits assumed) above", "test": "fluorescence-quenching assay, WT", "format": "binding", "protocol": "as §2, §3, §4, §5, §6, §7, §8"}, "[6]": {"target": "T4, H250A-NDM-1 (Klebsiella pneumoniae, UniProt C7C422, H250A)", "T4 sequence (C7C422 29-270 H250A)": "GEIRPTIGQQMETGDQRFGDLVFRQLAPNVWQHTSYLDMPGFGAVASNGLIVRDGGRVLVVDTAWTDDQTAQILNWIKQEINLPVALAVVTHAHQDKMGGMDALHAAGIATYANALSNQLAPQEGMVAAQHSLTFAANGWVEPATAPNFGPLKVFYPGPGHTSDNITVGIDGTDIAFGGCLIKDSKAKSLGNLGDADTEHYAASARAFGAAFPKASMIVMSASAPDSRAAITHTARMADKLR", "test": "fluorescence-quenching assay, H250A", "format": "binding", "protocol": "as §2, §3, §4, §5, §6, §7, §8"}, "[7]": {"target": "T2, W93A-NDM-1", "test": "nitrocefin assay with mutant W93A", "format": "biochemical", "settings": "4-64 μg/mL", "protocol": "(§9) Subsequently, the inhibitory activity of ZINC05683641 against mutants was tested by the nitrocefin assays. […] The findings indicate that due to the mutation of residues in the binding sites, the binding affinity of ZINC05683641 with NDM-1 decreased, leading to a loss of inhibitory activity. […]\nas §5, §6, §7\n(§10) Plasmids harboring the coding sequences for WT-NDM-1, W93A-NDM-1, and H250A-NDM-1 were transformed into E. coli BL21 (DE3). The E. coli strain was cultured in 1,000 mL of LB broth supplemented with 50 μg mL–1 kanamycin until the OD 600 nm of the cultures reached 0.6–0.8.\n(§11) Protein expression was induced by using 0.3 mM IPTG for 12 h at 16 °C. The cells were harvested and washed once with sterile PBS. […]\nas §1"}, "[8]": {"target": "T4, H250A-NDM-1", "test": "nitrocefin assay with mutant H250A", "format": "biochemical", "settings": "4-64 μg/mL", "protocol": "as §9, §5, §6, §7, §10, §11, §1"}, "[9]": {"settings": "IC50, nitrocefin hydrolysis, OD492nm, mean ± SD, n = 3"}, "[10]": {"settings": "IC50 (not available; inhibitory activity at 1 mM), initial test at a concentration of 1 mM"}}, "note": "“Also recorded” adds a separate entry of the source. Read-outs that look alike come from different tables or passages of the source.", "data": [{"smiles": "C[C@H]1CCc2cc(F)cc3c(=O)c(C(=O)NCc4ccccc4Cl)c(O)n1c23", "note": "[ZINC06166781]", "values": [{"measurement": "IC50", "setting": "[1]; [9]", "result": "> 300", "unit": "µM"}]}, {"smiles": "Cc1ccc(N2C(=O)c3ccc(C(=O)c4ccc5c(c4)C(=O)N(c4ccc(C)cc4C)C5=O)cc3C2=O)c(C)c1", "note": "[ZINC02079077]", "values": [{"measurement": "IC50", "setting": "[1]; [9]", "result": "108 ± 5.64", "unit": "µM"}]}, {"smiles": "Cc1ccc(S(=O)(=O)Nc2cccc3cccc(NS(=O)(=O)c4ccc(C)cc4)c23)cc1", "note": "[ZINC03198432]", "values": [{"measurement": "IC50", "setting": "[1]; [9]", "result": "> 300", "unit": "µM"}]}, {"smiles": "O=C1C(=Cc2cccc(Cl)c2)CN(Cc2ccccc2)CC1=Cc1cccc(Cl)c1", "note": "[ZINC20115378]", "values": [{"measurement": "IC50", "setting": "[1]; [9]", "result": "> 300", "unit": "µM"}]}, {"smiles": "N[C@H](CN[C@H](CN[C@@H](CC(=O)O)C(=O)O)C(=O)O)C(=O)O", "note": "[aspergillomarasmine A]", "values": [{"measurement": "IC50", "setting": "[2]", "result": 4, "unit": "µM"}]}, {"smiles": "Cc1ccc(S(=O)(=O)N[C@@H](C(=O)Oc2ccc3c4c(c(=O)oc3c2)CCCC4)c2ccccc2)cc1", "note": "[ZINC11865709]", "values": [{"measurement": "IC50", "setting": "[1]; [9]", "result": "> 300", "unit": "µM"}]}, {"smiles": "Cc1ccc(N2C(=O)c3ccc(C(=O)c4ccc5c(c4)C(=O)N(c4ccc(C)cc4C)C5=O)cc3C2=O)c(C)c1", "note": "[ZINC00639379]", "values": [{"measurement": "IC50", "setting": "[1]; [9]", "result": "207 ± 15.5", "unit": "µM"}]}, {"smiles": "O=c1oc2cc(OCc3ccc(Cl)c(Cl)c3)ccc2cc1-c1nc2ccccc2s1", "note": "[ZINC01799114]", "values": [{"measurement": "IC50", "setting": "[1]; [9]", "result": "> 300", "unit": "µM"}]}, {"smiles": "COc1ccc2c3c(cccc13)C(=O)N(OS(=O)(=O)c1ccc(C)cc1)C2=O", "note": "[ZINC05683641]", "values": [{"measurement": "MIC", "setting": "[3]", "result": "> 512", "unit": "µg/mL"}, {"measurement": "inhibition of cell growth", "setting": "[3]; inhibitor alone, 512 μg/mL", "result": "did not inhibit cell growth"}, {"measurement": "Kd", "setting": "[4]", "result": 3.28, "unit": "µM"}, {"measurement": "binding constant KA", "setting": "[4]; W93A, fluorescence spectroscopy quenching, mean ± SD, n = 3", "result": "3.05 ± 0.83 1 × 10^5 L mol^−1"}, {"measurement": "Kd", "setting": "[5]", "result": 2.4, "unit": "µM"}, {"measurement": "Kd", "setting": "[6]", "result": 4.65, "unit": "µM"}, {"measurement": "binding constant KA", "setting": "[6]; H250A, fluorescence spectroscopy quenching, mean ± SD, n = 3", "result": "2.15 ± 0.88 1 × 10^5 L mol^−1"}, {"measurement": "IC50", "setting": "[1]; [9]", "result": "13.6 ± 0.52", "unit": "µM"}, {"measurement": "hydrolysis activity of nitrocefin by WT-NDM-1", "setting": "[1]; final concentrations of 4, 8, 16, 32 and 64 μg/mL", "result": "reduced"}, {"measurement": "inhibition at 16 µM", "setting": "[1]; read-out: inhibition rate", "result": "> 50", "unit": "%"}, {"measurement": "inhibition of W93A hydrolysis activity", "setting": "[7]", "result": "almost no inhibition; also recorded: did not lead to inhibitory effects"}, {"measurement": "inhibition of H250A hydrolysis activity", "setting": "[8]", "result": "almost no inhibition; also recorded: did not lead to inhibitory effects"}]}, {"smiles": "O=[N+]([O-])c1cccc(S(=O)(=O)N2CN(c3ccc4ccccc4c3)c3nc4ccccc4nc32)c1", "note": "[ZINC12524283]", "values": [{"measurement": "IC50", "setting": "[1]; [9]", "result": "> 300", "unit": "µM"}]}, {"smiles": "O=C1c2cccc3cccc(c23)C(=O)N1OS(=O)(=O)c1ccc(Cl)cc1", "note": "[ZINC02953923]", "values": [{"measurement": "IC50", "setting": "[1]; [9]", "result": "> 300", "unit": "µM"}]}, {"smiles": "Cc1ccc(-c2cc(C(F)(F)F)c3c(N)c(C(=O)c4ccccc4)sc3n2)cc1", "note": "[ZINC06421319]", "values": [{"measurement": "IC50", "setting": "[1]; [10]", "result": "> 1000", "unit": "µM"}]}, {"smiles": "Cc1ccc(C2=NN3[C@@H](C(=O)c4ccc(-c5ccccc5)cc4)Oc4ccc(Cl)cc4[C@H]3C2)cc1", "note": "[ZINC25558691]", "values": [{"measurement": "IC50", "setting": "[1]; [10]", "result": "> 1000", "unit": "µM"}]}, {"smiles": "Cc1ccccc1S(=O)(=O)ON1C(=O)c2cccc3cc(S(=O)(=O)N(C)C)cc(c23)C1=O", "note": "[ZINC25558269]", "values": [{"measurement": "IC50", "setting": "[1]; [10]", "result": "> 1000", "unit": "µM"}]}, {"smiles": "C[C@@H](O)[C@H]1C(=O)N2C(C(=O)O)=C(S[C@@H]3CN[C@H](C(=O)N(C)C)C3)[C@H](C)[C@H]12", "note": "[Meropenem]", "values": [{"measurement": "MIC of meropenem in combination", "setting": "[3]; +64 μg/mL ZINC05683641", "result": 8, "unit": "µg/mL"}, {"measurement": "MIC of meropenem in combination", "setting": "[3]; +128 μg/mL ZINC05683641", "result": 8, "unit": "µg/mL"}, {"measurement": "MIC", "setting": "[3]", "result": 32, "unit": "µg/mL"}, {"measurement": "reduction of the MICs of meropenem", "setting": "[3]; addition of ZINC05683641 at 64 and 128 μg/mL", "result": "fourfold"}, {"measurement": "FICI", "setting": "[3]; meropenem +64 μg/mL ZINC05683641", "result": 0.375}, {"measurement": "FICI", "setting": "[3]; meropenem +128 μg/mL ZINC05683641", "result": 0.50}, {"measurement": "FICI", "setting": "[3]; meropenem +128 μg/mL ZINC05683641, listed as meropenem", "result": 0.500}]}, {"smiles": "Cc1ccc(-c2cc(C(=O)Oc3ccc([N+](=O)[O-])cc3)c3cc(C)ccc3n2)cc1", "note": "[ZINC02577071]", "values": [{"measurement": "IC50", "setting": "[1]; [9]", "result": "> 300", "unit": "µM"}]}, {"smiles": "Cc1ccc(S(=O)(=O)ON2C(=O)c3cccc4cccc(c34)C2=O)cc1", "note": "[ZINC02938448]", "values": [{"measurement": "IC50", "setting": "[1]; [9]", "result": "> 300", "unit": "µM"}]}, {"smiles": "O=C(N[C@@H](Cc1ccc2ccccc2c1)C(=O)O)OCC1c2ccccc2-c2ccccc21", "note": "[ZINC04218138]", "values": [{"measurement": "IC50", "setting": "[1]; [10]", "result": "> 1000", "unit": "µM"}]}, {"smiles": "O=C1c2cccc3c(Br)ccc(c23)C(=O)N1OS(=O)(=O)c1ccc(Cl)cc1", "note": "[ZINC25558273]", "values": [{"measurement": "IC50", "setting": "[1]; [9]", "result": "> 300", "unit": "µM"}]}]}
